The test concerns Haemonchus contortus. The test can be described thus: In vivo nematode test Haemonchus contortus/sheep. The conditions noted are these: sheep infected experimentally with Haemonchus contortus; pure active compound orally and/or intravenously; dose after which egg excretion with the faeces has stopped completely. As for the experimental part: Haemonchus contortus/sheep
Sheep infected experimentally with Haemonchus contortus were treated after the prepatency period of the parasite had elapsed. The active compounds were administered orally and/or intravenously in the form of the pure active compound.
The degree of effectiveness is determined by quantitatively determining the nematode eggs excreted with the faeces before and after the treatment.
If egg excretion has stopped completely after the treatment, this means that the nematodes were aborted or are damaged to such an extent that they no longer produce eggs (Dosis effective).
Active compounds which have been tested and effective dosage rates (Dosis effective) can be seen from the table which follows: […]

The results in this text go back to patent US5529984A, “Endoparasiticidal compositions based on open-chain hexadepsipeptides” (Bayer Aktiengesellschaft, priority 1993, dated 1996).

Regarding `CCC(C)C(C(=O)OC(C)C(=O)N(C)C(C(=O)OC(C)C(=O)N(C)C(C(=O)OC(C)C(=O)O)C(C)CC)C(C)CC)N(C)C(=O)OCc1ccccc1` [Example 3, N-Benzyloxycarbonyl-N-methyl-L-isoleucyl-D -lactyl-N-methyl-L-isoleucyl-D-lactyl-N-methyl-n-isoleucyl-D-lactic acid], the “Dosis effective” value is listed as 10 mg/kg.
